Measurements from US7582279B2, “Blood-pool carrier for lipophilic imaging agents” (The Board of Regents of the University of Michigan, priority 1994, dated 2009).

Tested on: VX2 tumors
Test: CT of hepatic VX2 tumors, co-administration study
Assay type: in vivo, rabbits
Details: VX2 rabbit
Source text: In a particularly advantageous embodiment of the invention, a hepatocyte-selective oil-in-water emulsion is co-administered with the blood-pool agent of the present invention. Liver-selective particulate agents (hepatocyte-selective or Kupffer cell-selective) clear rapidly from the blood and render the blood hypodense relative to surrounding liver tissue. It is very difficult to separate small tumors, which also appear as hypodense areas from small vasculature in the sub 5 mm size range. In order to compensate for this problem, DHOG-PEG (Example 1) and hepatocyte-selective DHOG-LE (Emulsion Example 6, non-radioactive form) were co-administered to rabbits bearing VX2 tumors.
Rabbits (mean weight 2.5 kg) were inoculated with VX2 carcinoma directly into the hepatic parenchyma to produce a total of 8 focal lesions (2-10 mm). Ten days later, the rabbits were scanned with multiple techniques including noncontrast, helical IV enhanced (600 mg I/kg iohexol), and 24 hours later using the iodinated microparticulate emulsion (200 mg I/kg). Tissue density measurements (HU) were made of liver, lesions, and blood (descending aorta). Tumor morphology was verified by gross pathologic examination.

[1] = iohexol 600 mg I/kg, emulsion 200 mg I/kg

## CC(=O)N(CC(O)CO)c1c(I)c(C(=O)NCC(O)CO)c(I)c(C(=O)NCC(O)CO)c1I (stereo not drawn) [iohexol]
  lesion detection (sensitivity), Lesions < 1 cm: 49.3
  lesion detection (sensitivity), Lesions > 1 cm: 97.6
  lesion detection (sensitivity), Overall: 67.6
  liver-to-lesion difference: 28.8
[1]
  enhancement of liver tissue: +66.8 HU
  tumor enhancement: +40.1 HU
